Experimental data from BindingDB's records for doi:10.3109/14756366.2010.515215 (Gyeongsang National University, 2011).

Key:
Assay in all cases: In Vitro Kinase Assay
Conditions in all cases: pH 7
[1] = molecular target: Epidermal growth factor receptor (Homo sapiens, UniProt P00533)
Procedure: (§1) Inhibition of kinase activity against a variety of recombinant kinases [FLT3, FLT3 D835Y, anaplastic lymphoma kinase (ALK), insulin receptor, and epidermal growthfactor receptor (EGFR)] was measured using homogeneous time-resolved fluorescence (HTRF) assays [Choi et al., Bioorg. Med. Chem. Lett., 20:2033-2037]. Assays consist of enzymes mixed with serially diluted compounds and peptide substrates in a kinase reaction buffer (250 mM HEPES (pH 7.0), 0.5 mM orthovanadate, 0.05% bovine serum albumin, 0.1% NaN3). Following the addition of reagents for detection, the TR-FRET signal was measured using an EnVision multi-label reader (Perkin Elmer, Waltham, MA).

Insulin receptor = Insulin receptor (Homo sapiens, UniProt P06213)
Procedure: as §1

[2] = molecular target: ALK tyrosine kinase receptor (Homo sapiens, UniProt Q9UM73)
Procedure: as §1

Sequence of Insulin receptor (P06213 28-758 limits assumed): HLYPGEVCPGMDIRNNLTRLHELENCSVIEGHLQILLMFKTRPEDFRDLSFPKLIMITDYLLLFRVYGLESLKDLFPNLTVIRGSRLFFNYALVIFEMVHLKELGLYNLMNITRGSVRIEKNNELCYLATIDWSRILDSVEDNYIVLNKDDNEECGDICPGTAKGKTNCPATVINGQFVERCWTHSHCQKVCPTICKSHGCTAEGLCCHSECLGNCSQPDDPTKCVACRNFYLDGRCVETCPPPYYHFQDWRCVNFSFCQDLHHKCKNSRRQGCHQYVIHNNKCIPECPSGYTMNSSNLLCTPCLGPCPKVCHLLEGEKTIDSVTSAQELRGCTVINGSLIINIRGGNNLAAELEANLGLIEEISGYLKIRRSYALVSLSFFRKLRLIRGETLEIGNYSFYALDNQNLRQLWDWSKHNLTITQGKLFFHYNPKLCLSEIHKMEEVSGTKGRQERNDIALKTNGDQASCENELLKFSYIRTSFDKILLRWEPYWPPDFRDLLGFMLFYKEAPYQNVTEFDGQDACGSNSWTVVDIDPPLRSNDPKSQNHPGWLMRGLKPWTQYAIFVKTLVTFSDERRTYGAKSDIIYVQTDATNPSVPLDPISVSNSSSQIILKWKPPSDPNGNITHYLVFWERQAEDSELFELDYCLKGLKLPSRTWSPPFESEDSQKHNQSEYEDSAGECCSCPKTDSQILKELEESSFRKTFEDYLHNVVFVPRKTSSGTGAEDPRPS
Sequence of Insulin receptor (P06213 763-1382 limits assumed): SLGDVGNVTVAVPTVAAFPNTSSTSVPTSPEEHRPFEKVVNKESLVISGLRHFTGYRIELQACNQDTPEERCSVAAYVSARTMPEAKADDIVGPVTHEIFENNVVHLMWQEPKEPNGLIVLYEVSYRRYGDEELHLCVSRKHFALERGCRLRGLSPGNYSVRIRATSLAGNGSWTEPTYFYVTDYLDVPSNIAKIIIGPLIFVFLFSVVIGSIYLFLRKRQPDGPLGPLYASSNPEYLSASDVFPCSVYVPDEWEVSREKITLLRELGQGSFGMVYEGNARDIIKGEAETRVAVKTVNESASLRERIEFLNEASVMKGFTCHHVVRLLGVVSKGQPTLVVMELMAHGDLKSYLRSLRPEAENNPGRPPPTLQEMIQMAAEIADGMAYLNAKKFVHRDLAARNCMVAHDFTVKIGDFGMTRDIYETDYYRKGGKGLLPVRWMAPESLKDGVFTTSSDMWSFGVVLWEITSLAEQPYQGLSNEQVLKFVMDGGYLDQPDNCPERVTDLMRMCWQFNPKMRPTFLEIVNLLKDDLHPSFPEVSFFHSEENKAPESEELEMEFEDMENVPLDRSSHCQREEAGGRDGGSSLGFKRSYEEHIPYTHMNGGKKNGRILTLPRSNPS
Sequence of Epidermal growth factor receptor (P00533 whole entry): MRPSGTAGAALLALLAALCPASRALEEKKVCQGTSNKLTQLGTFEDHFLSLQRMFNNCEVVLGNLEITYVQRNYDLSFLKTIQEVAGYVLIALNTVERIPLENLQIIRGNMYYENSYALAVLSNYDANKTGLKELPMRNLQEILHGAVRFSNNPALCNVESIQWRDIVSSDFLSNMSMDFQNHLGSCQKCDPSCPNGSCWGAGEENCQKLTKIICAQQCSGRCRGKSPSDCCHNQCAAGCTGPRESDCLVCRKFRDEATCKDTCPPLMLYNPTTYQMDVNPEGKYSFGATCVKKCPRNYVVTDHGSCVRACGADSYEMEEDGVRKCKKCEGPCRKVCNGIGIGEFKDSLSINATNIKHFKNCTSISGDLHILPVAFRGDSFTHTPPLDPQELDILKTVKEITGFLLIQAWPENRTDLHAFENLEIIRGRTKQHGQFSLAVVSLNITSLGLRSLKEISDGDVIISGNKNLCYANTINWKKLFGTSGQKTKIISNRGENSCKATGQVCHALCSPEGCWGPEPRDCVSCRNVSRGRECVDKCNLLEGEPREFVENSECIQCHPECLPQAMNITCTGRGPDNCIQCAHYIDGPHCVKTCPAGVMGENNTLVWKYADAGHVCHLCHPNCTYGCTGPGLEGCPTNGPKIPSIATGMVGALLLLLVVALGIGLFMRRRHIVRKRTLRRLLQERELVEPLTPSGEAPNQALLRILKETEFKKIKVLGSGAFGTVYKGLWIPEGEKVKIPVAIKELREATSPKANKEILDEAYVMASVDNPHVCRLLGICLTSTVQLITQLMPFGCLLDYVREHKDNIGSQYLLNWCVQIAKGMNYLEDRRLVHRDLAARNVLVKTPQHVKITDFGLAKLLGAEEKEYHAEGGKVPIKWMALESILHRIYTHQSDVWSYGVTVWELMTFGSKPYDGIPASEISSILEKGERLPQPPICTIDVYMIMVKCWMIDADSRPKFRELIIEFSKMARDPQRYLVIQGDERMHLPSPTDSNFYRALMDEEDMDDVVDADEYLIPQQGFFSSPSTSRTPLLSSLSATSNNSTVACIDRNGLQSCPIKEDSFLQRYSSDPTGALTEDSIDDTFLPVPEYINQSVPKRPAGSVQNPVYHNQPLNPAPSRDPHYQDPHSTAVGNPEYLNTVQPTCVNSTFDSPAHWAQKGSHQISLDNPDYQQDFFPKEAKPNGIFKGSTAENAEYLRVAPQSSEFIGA
Sequence of ALK tyrosine kinase receptor (Q9UM73 whole entry): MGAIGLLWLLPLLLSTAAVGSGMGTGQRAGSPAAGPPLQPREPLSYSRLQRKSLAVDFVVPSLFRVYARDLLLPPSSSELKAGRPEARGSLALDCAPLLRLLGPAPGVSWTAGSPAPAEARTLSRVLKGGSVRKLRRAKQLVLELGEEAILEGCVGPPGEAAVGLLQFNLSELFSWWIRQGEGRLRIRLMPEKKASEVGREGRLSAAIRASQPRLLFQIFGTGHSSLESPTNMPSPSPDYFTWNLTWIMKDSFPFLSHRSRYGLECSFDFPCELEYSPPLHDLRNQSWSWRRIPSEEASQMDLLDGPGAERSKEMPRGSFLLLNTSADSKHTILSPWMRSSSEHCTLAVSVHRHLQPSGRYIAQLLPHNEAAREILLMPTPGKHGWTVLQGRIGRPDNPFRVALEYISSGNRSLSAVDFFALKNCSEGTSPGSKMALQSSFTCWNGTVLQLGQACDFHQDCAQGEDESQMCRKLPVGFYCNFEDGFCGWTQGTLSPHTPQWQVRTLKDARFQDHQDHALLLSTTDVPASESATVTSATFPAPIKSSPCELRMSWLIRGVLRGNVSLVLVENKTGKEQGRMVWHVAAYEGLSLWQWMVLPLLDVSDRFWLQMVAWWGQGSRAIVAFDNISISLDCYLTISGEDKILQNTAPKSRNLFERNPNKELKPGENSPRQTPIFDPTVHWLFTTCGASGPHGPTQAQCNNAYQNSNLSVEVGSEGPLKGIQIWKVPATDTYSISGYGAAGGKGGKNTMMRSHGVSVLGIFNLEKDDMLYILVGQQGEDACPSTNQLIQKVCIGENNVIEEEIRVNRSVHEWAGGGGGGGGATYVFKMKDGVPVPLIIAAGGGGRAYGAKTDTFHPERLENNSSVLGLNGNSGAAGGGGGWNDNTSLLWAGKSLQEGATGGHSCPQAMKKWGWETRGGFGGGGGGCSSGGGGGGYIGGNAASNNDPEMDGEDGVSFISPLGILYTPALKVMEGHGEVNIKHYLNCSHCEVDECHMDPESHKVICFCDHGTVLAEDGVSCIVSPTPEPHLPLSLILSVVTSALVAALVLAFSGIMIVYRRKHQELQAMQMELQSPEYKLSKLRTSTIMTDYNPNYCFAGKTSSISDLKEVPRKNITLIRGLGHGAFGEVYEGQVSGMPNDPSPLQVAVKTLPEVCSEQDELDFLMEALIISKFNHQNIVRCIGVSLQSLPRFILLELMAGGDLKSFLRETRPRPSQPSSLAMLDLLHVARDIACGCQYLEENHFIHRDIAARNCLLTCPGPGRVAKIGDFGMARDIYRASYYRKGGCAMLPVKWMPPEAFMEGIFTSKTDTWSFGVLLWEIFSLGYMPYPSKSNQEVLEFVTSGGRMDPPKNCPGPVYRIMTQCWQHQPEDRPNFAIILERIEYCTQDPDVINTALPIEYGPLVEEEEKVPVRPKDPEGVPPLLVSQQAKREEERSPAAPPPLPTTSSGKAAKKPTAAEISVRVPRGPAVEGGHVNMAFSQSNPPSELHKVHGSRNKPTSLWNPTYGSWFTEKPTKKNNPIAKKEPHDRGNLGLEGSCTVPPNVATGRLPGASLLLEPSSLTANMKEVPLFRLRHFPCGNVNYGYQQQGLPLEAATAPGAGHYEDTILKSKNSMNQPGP

O=c1c2cc(O)c(O)cc2oc2cc(O)c(C3O[C@H](CO)[C@@H](O)[C@H](O)[C@H]3O)c(O)c12 (stereo partly drawn) [Mangiferin]
IC50 [1]: > 10 µM | IC50 (Insulin receptor): > 10 µM | IC50 [2]: 0.81 µM
